Results taken from patent US10961202B2, “Bis-benzimidazole compounds and methods of using the same” (THE SCRIPPS RESEARCH INSTITUTE, priority 2017, dated 2021).
Like-named read-outs stand apart in the source and are kept apart here.

How the values were obtained:
[1] = tested on: MBNL1 exon 5 inclusion in DM1 myotubes; assay: Myotube splicing rescue assay (MBNL1 exon 5 inclusion); type: cell-based, human; settings: 48-hour incubation
r(CUG)12-MBNL1 complex = assay: Inhibition of the r(CUG)12-MBNL1 complex measured by TR-FRET; type: biochemical; settings: Table M; 80 nM RNA, 60 nM MBNL1-His6
HSALR strain 20b mice [2] = assay: DM1 mouse efficacy study: RT-PCR of MBNL1-dependent splicing targets in gastrocnemius; type: in vivo; settings: sc, 3 mg/kg qod 5 doses, subcutaneous
From the text: HSALR strain 20b mice were used as a model for myotonic dystrophy type I (DM1) experimental studies when testing the efficacy of candidate compounds. To determine the genotype of the mice, the transgene of human skeletal actin (HSA) genomic level was compared to endogenous mouse skeletal actin (MSA) by PCR. Mice with an HSA:MSA ratio of 2:1, homozygous mice were used for the study. Disease phenotype was confirmed in homozygous HSALR by assessing myotonia by pinching the quadriceps of the mouse. […] Homozygous HSALR that have been confirmed by PCR genotyping HSA:MSA ratio and are positive for pinch myotonia were selected for candidate compound efficacy studies for DM1.
For each study, a control group of PBS injected mice was included along with mice test groups injected with the compound to be tested. For a statistical power >80%, five mice were used per group (three females and two males). As previously indicated, homozygous HSALR mice were selected aged 8-12 weeks at the beginning of the study. Littermate mice were evenly distributed across groups in the study. Each cage contained mice from a single group. Female mice from different litters were combined into one cage for a single test group. Male mice cannot be combined in cages with non-littermate mice. If any fighting occurred in cages with multiple mice, the mice with minor/superficial fight wounds were be separated and monitored. Mice with severe fight wounds were removed from the study. Mice were monitored throughout the study for weight changes over time, behavioral changes at time of injection, and any other potential health concerns that arose during the study.
Mice were injected with approximately ˜200 μL solution subcutaneously by 28-gauge syringe. The volume administered was determined by the weight of the mouse where 10 iaL solution is administered per 1 g of the weight of the mouse. The compound was solubilized in DPBS at a concentration of […], which equated to a dose of 0.1-3.0 mg compound per kg weight of the animal (mpk). Mice were weighed once a week, and the volume of administered compound solution (or DPBS) was adjusted accordingly for correct mpk dosing. Once a compound was tested for acute toxicity in FVB wildtype mice, the compound was typically first tested at 3 mpk, injected every other day (q.o.d.) for five doses, and the mice sacrificed 24 hr after the last injection. Candidate compounds were further tested at different dose regimes to further assess the compound's efficacy in DM1 mice.
For each mouse, blood, brain, heart, liver, kidney, tibialis anterior, gastrocnemius, and quadriceps were dissected and collected. After the mouse was euthanized, blood was collected by cardiac puncture and placed in lithium heparin tubes on ice. Plasma was separated by centrifugation and collected. Brain, heart, half of the liver, tibialis anterior, gastrocnemius, and quadriceps were flash frozen in liquid nitrogen. Half of the liver, kidneys, and subset of heart samples were fixed in 10% formalin. One of the two tibialis anterior muscles was frozen with OCT for cyro-sectioning.
Gastrocnemius muscle was used for downstream RNA extraction RT-PCR. […] Half of one gastrocnemius was used for an RNA extraction. The gastrocnemius was homogenized in Trizol reagent and extracted following the protocol of the Zymo Direct-zol RNA Mini Prep Plus kit.
For each RNA sample, 500 ng of RNA was used for a reverse transcription reaction to produce single-stranded cDNA. MBNL1-dependent splicing targets (Clcn1 exon 7a, Mbnl1 exon 5, Sercal exon 22, and Zasp exon 11) and MBNL1-independent splicing targets (Capzb exon 8, Itgb1 exon 17) were assessed by RT-PCR. For the alternative exons listed, forward and reverse primers were designed to amplify the alternative exon along with the flanking constitutive exons such that one primer may produce two PCR products: one PCR product including the alternative exon and one PCR product excluding the alternative exon. […]

HSALR strain 20b mice [3] = assay: as above; type: in vivo; settings: sc, 7.5 mg/kg qod 5 doses, subcutaneous
[4] = read-out: Clcn1 exon 7a splicing rescue %
[5] = read-out: Mbnl1 exon 5 splicing rescue %
[6] = read-out: Serca1 exon 22 splicing rescue %
[7] = read-out: Zasp exon 11 splicing rescue %

| SMILES | IC50 (r(CUG)12-MBNL1 complex) [µM] | MBNL1 % splicing rescue at 10 μM [1] [%] | percent splicing rescue at 3 mg/kg (HSALR strain 20b mice [2]; [4]) [%] | percent splicing rescue at 3 mg/kg (HSALR strain 20b mice [2]; [5]) [%] | percent splicing rescue at 3 mg/kg (HSALR strain 20b mice [2]; [6]) [%] | percent splicing rescue at 3 mg/kg (HSALR strain 20b mice [2]; [7]) [%] | percent splicing rescue at 7.5 mg/kg (HSALR strain 20b mice [3]; [4]) [%] | percent splicing rescue at 7.5 mg/kg (HSALR strain 20b mice [3]; [5]) [%] | percent splicing rescue at 7.5 mg/kg (HSALR strain 20b mice [3]; [6]) [%] | percent splicing rescue at 7.5 mg/kg (HSALR strain 20b mice [3]; [7]) [%] | MBNL1 % splicing rescue at 1 μM ([1]; 1 μM) [%] |
| --- | --- | --- | --- | --- | --- | --- | --- | --- | --- | --- | --- |
| c1cc2nc(-c3ccc(-c4nc5ccc(OCCCN6CCCCC6)cc5[nH]4)cc3)[nH]c2cc1OCCCN1CCCCC1 [Compound 214] | 25.2 | 119.3 | -31.6 | -17.3 | -5.1 | -12.1 | – | – | – | – | – |
| CN(C)CCCOc1ccc2nc(-c3cnc(-c4nc5ccc(OCCCN(C)C)cc5[nH]4)cn3)[nH]c2c1 [Compound 274] | 12 | 65.3 | 31.6 | 25.2 | 10.7 | 29.8 | – | – | – | – | – |
| CN(C)CCCOc1cc2[nH]c(-c3ccc(-c4nc5cc(F)c(OCCCN(C)C)cc5[nH]4)cc3)nc2cc1F [Compound 277, (3-[[2-(4-[6-[3-(dimethylamino)propoxy]-5-fluoro-1H-1,3-benzodiazol-2-yl]phenyl)-5-fluoro-1H-1,3-benzodiazol-6-yl]oxy]propyl)dimethylamine; 2-hydroxypropane-1,2,3-tricarboxylic acid] | 8.29 | 51.0 | 30.3 | 19.9 | 13.2 | 24.2 | – | – | – | – | – |

More lines, main results first:

| IC50 (r(CUG)12-MBNL1 complex) [µM] | SMILES | MBNL1 % splicing rescue at 10 μM [1] [%] | percent splicing rescue at 3 mg/kg (HSALR strain 20b mice [2]; [4]) [%] | percent splicing rescue at 3 mg/kg (HSALR strain 20b mice [2]; [5]) [%] | percent splicing rescue at 3 mg/kg (HSALR strain 20b mice [2]; [6]) [%] | percent splicing rescue at 3 mg/kg (HSALR strain 20b mice [2]; [7]) [%] | percent splicing rescue at 7.5 mg/kg (HSALR strain 20b mice [3]; [4]) [%] | percent splicing rescue at 7.5 mg/kg (HSALR strain 20b mice [3]; [5]) [%] | percent splicing rescue at 7.5 mg/kg (HSALR strain 20b mice [3]; [6]) [%] | percent splicing rescue at 7.5 mg/kg (HSALR strain 20b mice [3]; [7]) [%] | MBNL1 % splicing rescue at 1 μM ([1]; 1 μM) [%] |
| --- | --- | --- | --- | --- | --- | --- | --- | --- | --- | --- | --- |
| 9.67 | CN1CCC(COc2ccc3nc(-c4ccc(-c5nc6ccc(OCC7CCN(C)CC7)cc6[nH]5)cc4)[nH]c3c2)CC1 [Compound 198, 1,4-bis(6-((1-methylpiperidin-4-yl)methoxy)-1H-benzo[d]imidazol-2-yl)benzene] | 109.8 | 55.1 | 49.7 | 22.3 | 35 | 90.4 | 94.5 | 61.2 | 91.5 | – |
| 14.2 | CN(C)CCCOc1ccc2nc(-c3ccc(-c4nc5ccc(OCCCN(C)C)cc5[nH]4)c(F)c3)[nH]c2c1 [Compound 286, (3-[[2-(4-[6-[3-(dimethylamino)propoxy]-1H-1,3-benzodiazol-2-yl]-3-fluorophenyl)-1H-1,3-benzodiazol-6-yl]oxy]propyl)dimethylamine] | 96.4 | 65.8 | 70.4 | 40.4 | 60 | – | – | – | – | – |
| 16.5 | CN(C)CCOc1cccc(-c2nc3cc(-c4ccc5[nH]c(-c6cccc(OCCN(C)C)c6)nc5c4)ccc3[nH]2)c1 [Compound 354] | 64.2 | -14 | -0.1 | 0.1 | -0.1 | – | – | – | – | 66.0 |
